Consider three compounds from patent US20040185128A1, “Use of an extract of the root of balloon-flower for preventing and treating a degenerative brain disease or for enhancing memory” (priority 2001, published 2004).

Molecules are shown by their SMILES.

Test [1] concerns the target T1, recombinant human muscarinic acetylcholine receptor subtype 1 (mAChR-M1) (Homo sapiens, UniProt P11229).
T1 construct: purchased BSR BSR-MM1H; host or cells: Chinese Hamster Ovary (CHO) cells
T1 sequence (P11229 1-460): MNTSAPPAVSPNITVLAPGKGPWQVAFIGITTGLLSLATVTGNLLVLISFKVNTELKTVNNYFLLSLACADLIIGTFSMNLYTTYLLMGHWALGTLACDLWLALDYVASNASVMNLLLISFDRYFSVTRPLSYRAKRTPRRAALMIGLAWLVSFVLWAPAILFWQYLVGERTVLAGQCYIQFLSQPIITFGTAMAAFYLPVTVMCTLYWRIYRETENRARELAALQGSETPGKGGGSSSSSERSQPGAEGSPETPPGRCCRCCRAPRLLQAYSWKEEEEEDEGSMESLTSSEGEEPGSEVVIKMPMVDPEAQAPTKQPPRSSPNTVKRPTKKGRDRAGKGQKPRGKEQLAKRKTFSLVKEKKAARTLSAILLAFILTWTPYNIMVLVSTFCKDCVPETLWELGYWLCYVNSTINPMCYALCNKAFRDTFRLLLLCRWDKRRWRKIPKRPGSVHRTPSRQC
The test can be described thus: Inhibition of [3H]N-methyl-scopolamine binding to muscarinic acetylcholine receptor subtype 1. The note with it: control compound, read-out: concentration inhibiting the ligand binding to receptor by 50%.
Procedure: The ability of each of the compositions obtained in Example 1 in enhancing acetylcholine activity was measured by examining to what extent the binding of a ligand to muscarin acetylcholine receptor subtype 1(M1) is suppressed. That is, an excess amount of a radioactive isotope-labeled ligand was allowed to react with the receptor, unbound ligand was removed by filtering using a glass fiber filter and the amount of the isotope-labeled ligand on the filter was measured to quantify the amount of ligand bound to receptor, and thus, the effects of the compositions of the present invention was determined.
As the receptor, recombinant human muscarinic acetylcholine receptor subtype 1(mAChR-M1, BSR-MM1H, BSR) expressed in Chinese Hamster Ovary (CHO) cells was used. 250 μl of a deep-frozen (−70° C.) receptor fraction was suspended in 10 ml of phosphate buffer saline (PBS) (pH 7.4) and the concentration of the protein was adjusted to 130 μg/ml.
50 μl of 0.5 nM [^3H] N-methyl-scopolamine (24,605 DPM) (NEN, NET-636) and 10 μl of a test composition were added to each well of 96-well microtiter plate (Inotech harvester). […] The filtermat was dried in a microwave oven and the amount of the ligand bound to the receptor was evaluated by determining the radioactivity with the liquid scintillation counter (MicroBeta 1450 Plus; Wallac, Finland). […]

Test [2] addresses T2, NMDA-receptor (glycine site) (Rattus norvegicus, UniProt P35439).
T2 construct: Preparation of NMDA Receptor Fraction from Rat's Cerebrum; from tissue; host or cells: forebrain membrane fraction of male Sprague-Dawley rat
The test can be described thus: Inhibition of [3H]MDL 105,519 binding to the glycine site of NMDA receptor (rat forebrain fraction). The note with it: control compound, read-out: concentration inhibiting the ligand binding to receptor by 50%. From the text:
The fact that the compositions of the present invention suppresses neuron damage was confirmed as follows by examining the activity thereof in suppressing the binding formation of NMDA-receptor (glycine site) bound. NMDA (N-Methyl-D-Aspartate) which acts as an excitatory neurotransmitter induces neuron damage.
That is, an excess amount of a radioactive isotope-labeled ligand was allowed to react with the receptor, unbound ligand was removed by filtering using a glass fiber filter and the amount of the isotope-labeled ligand on the filter was measured to quantify the amount of ligand bound to receptor, and thus, the effects of the compositions of the present invention was determined.
Forebrain taken from a male Spargue-Dawley rat was sliced and a 10-fold volume of cold sucrose solution ([…]) was added thereto. The resulting mixture was homogenized (5 strokes) using a Teflon-glass homogenizer, and then centrifuged at 1000 g (10 min., 4° C.). The supernatant was centrifuged at 20000 g (20 min., 4° C.) to obtain a precipitate, a 20-fold volume of cold distilled water was added thereto and homogenized using Brinkman Polytron Homogenizer. […] The protein content was measured according to Bradford method and the protein concentration of suspension was adjusted to 1 mg/ml, divided into several fractions and kept at −70° C. […]

A further test relates to Male rats. The test can be described thus: Passive-avoidance test after ethanol administration. It counts as in vivo, rat. The note with it: 250 mg/kg composition (Tacrine 2.5 mg/kg) daily for a week; 3 g/kg 50% ethanol oral before learning; tested 24 hours later, up to 300 seconds.

Procedure for Male rats: Male rats, each weighing about 18 to 20 g, were raised under a condition of temperature 22±1° C. and 12L/12D photoperiod for 7 days while being allowed free access to food and water and used in the Test after 3 days of acclimatization.
The passive avoidance test composed of consecutively learning and testing procedures was conducted over a period of 2 days (interval: 24hours) using PACS-30 shuttle box system (Columbus Instrument Co.).
30 minutes after the 7th (last) administeration, a 3 g/kg dose of 50% ethanol was orally administered to respective rats. After 1 hour, the rats were placed in the bright area of a room which was divided into a dark and bright areas by a guillotin door and allowed to stay there for 30 seconds (the searching time). The guillotin door was opened to let the rats move to the dark side of the room. […] The time the rats took to move from the bright side to the dark side was measured automatically. […]
24 hours after the learning procedure, test procedure was conducted as follows. After 30 seconds of the searching time and opening of the gillontin door, the time the test animal took to move from the bright side to the dark side (latency time) was measured up to the extent 300 seconds. […]

For the compound `C[N+]1(C)CCC(OC(=O)C(c2ccccc2)c2ccccc2)CC1` [4-DAMP methiodide], the IC50 in test [1] worked out at 24 nM. On to `O=C(O)c1cc(=O)c2c(Cl)cc(Cl)cc2[nH]1` [5,7-DCKA, 5,7-Dichlorokynurenic acid], for which, in test [2], the IC50 is 1000 nM. `Nc1c2c(nc3ccccc13)CCCC2` [Comparative group, 9-amino-1,2,3,4-tetrahydroacrine]: the “Latency Time” value in the test with Male rats amounted to 31 s.
